Assay results from patent US7323484B2, “Farnesyl transferase inhibitors” (Societe de Conseils de Recherches et d'Applications …, priority 1996, dated 2008).

The compounds below were run on MIA-PaCa pancreatic cancer cells (expressing mutated Ki-ras gene) (assay: Antiproliferative activity on human tumoral cells, WST-1 assay, MIA PaCa-2). Details: MIA PaCa-2 cells, 96 hrs treatment, 0 to 100 μM, WST-1, compared to control cells.
Format: cell-based
Protocol: Antiproliferative Activity of Farnesyl-Transferase Inhibitors on Human Tumoral Cells
The assays were performed using either A-427 lung carcinomas (expressing mutated Ki-ras gene), HT-29 colon adenocarcinomas (expressing wild type ras gene), Calu-1 lung carcinomas (expressing mutated Ki-ras gene), and MIA-PaCa pancreatic cancer cells (expressing mutated Ki-ras gene). These tumoral cells were seeded on 96 well plates at day 0 and maintained at 37° C. in 5% CO2 atmosphere. At day 1, cells were treated with increased concentrations of test compounds ranging from 0 to 100 μM for 96 hrs. At the end of this period, the quantification of cell proliferation was evaluated by the calorimetric assay based on the cleavage of the tetrazolium salt WST-1 by mitochondrial dehydrogenases in viable cells leading to the formazan formation (Cell Proliferation Reagent WST-1 Kit, Boehringer Mannheim, Germany). These experiments, done in octuplicate, were repeated twice. The results, shown in Table I, depict the concentration range (μM) of test compound required to inhibit proliferation as compared to control cells in which no test compound was added.

| Compound | concentration range of test compound required to inhibit proliferation, MIA PaCa-2 [µM] |
| --- | --- |
| CCCC[C@H]1c2nc(-c3ccccc3OC)cn2CCN1C(=O)[C@@H](N)CS [Compound 3, 7-(2-amino-1-oxo-3-thio-propyl)-8-butyl-2-(2-methoxy-phenyl)-5,6,7,8-tetrahydro-imidazo-[1,2a]-pyrazine] | 12.5 to 25 |
| CCC(C)[C@H]1c2nc(-c3ccccc3OC)cn2CCN1C(=O)[C@@H](N)CSSC[C@H](N)C(=O)N1CCn2cc(-c3ccccc3OC)nc2[C@@H]1C(C)CC (stereo partly shown) [Compound 20, bis-1,1′-[7-(2-amino-1-oxo-3-thiopropyl)-2-(methoxyphenyl)-8-(1-methylpropyl)-5,6,7,8-tetrahydroimidazo[1,2a]pyrazine]disulfide] | 12.5 |
| COc1ccccc1-c1cn2c(n1)[C@H](C(C)(C)C)N(C(=O)[C@@H](N)CS)CC2 [Compound 24, 7-(2-amino-1-oxo-3-thiopropyl)-8-(1,1-dimethylethyl)-2-(2-methoxyphenyl)-5,6,7,8-tetrahydroimidazo[1,2a]pyrazine] | 25 to 50 |
| CCC(C)[C@H]1c2nc(-c3ccccc3OCc3ccccc3)cn2CCN1C(=O)[C@@H](N)CS (stereo partly shown) [Compound 25, 7-(2-amino-1-oxo-3-thiopropyl)-8-(1-methylpropyl)-2-(2-(phenylmethoxy)phenyl)-5,6,7,8-tetrahydroimidazo[1,2a]pyrazine] | 6.25 to 12.5 |
| COc1ccccc1-c1cn2c(n1)[C@H](CC1CCCCC1)N(C(=O)[C@@H](N)CS)CC2 [Compound 26, 7-(2-amino-1-oxo-3-thiopropyl)-8-(cyclohexylmethyl)-2-(2-methoxyphenyl)-5,6,7,8-tetrahydroimidazo[1,2a]pyrazine] | 6.25 to 12.5 |
| CCCC[C@H]1c2nc(-c3c(O)cccc3OC)cn2CCN1C(=O)[C@@H](N)CS [Compound 29, 7-(2-amino-1-oxo-3-thiopropyl)-8-butyl-2 (2-hydroxy-6-methoxyphenyl)-5,6,7,8-tetrahydro[1,2a]pyrazine] | 6.25 to 12.5 |
| COc1ccccc1-c1cn2c(n1)[C@H](C(C)(C)C)N(C(=O)[C@@H](N)CSSC[C@H](N)C(=O)N1CCn3cc(-c4ccccc4OC)nc3[C@@H]1C(C)(C)C)CC2 [Compound 30, bis-1,1′-[7-(2-amino-1-oxo-3-thiopropyl)-8-(1,1-dimethylethyl)-2-(2-methoxyphenyl)-5,6,7,8-tetrahydroimidazo[1,2a]pyrazine]disulfide] | 12.5 to 25 |
